Earlier results on one compound are cited in US20040224039A1, “Compositions and methods for the treatment of diseases and disorder associated with oxidative damage” (priority 2003, published 2004).

For the data set the following is noted: following the administration of 500 mg aspirin.

With `CC(=O)Oc1ccccc1C(=O)O` [aspirin, acetylsalicylic acid], the plasma level was 130 µM.
